Data from patent publication US7951232B2, “Surface coating compositions and methods” (Elevance Renewable Sciences, Inc., priority 2006, dated 2011).
Where two headings read alike, the source gives them in different places.

Key:
Assay type in all cases: cell-based
[1] = system: Aspergillus flavus, ATCC 9170; assay: Preservative effectiveness, USP <51>
Protocol: (§1) The effectiveness of 9-decenoic acid on Aspergillus and Penecillium which occasionally result in in-can spoilage of paint was determined using the protocol on preservative effectiveness found in the United States Pharmacopeia (USP), 25th Edition, 2002, USP <51>.
(§2) Stock cultures of the fungi Aspergillus flavus, ATCC 9170 and Penecillium verrucosum, ATCC 18381 were cultured onto Sabouraud Dextrose Agar (SDA) and incubated at 25-30° C. for at least 1 week. The spores were washed form the agar surface with sterile saline, filtered through sterile glass wool, enumerated and stored under refrigeration for no longer than thirty days. On the day of the test, the suspension was diluted to approximately 10^8 CFU/ml.
(§3) The 9-decenoic acid was diluted in the same manner as previously described to achieve, 0.25, 0.125, 0.0625, 0.03, 0.015, 0.0078 and 0.0039% and dispensed in 20 ml aliquots in sterile test tubes. For each concentration tested, a 0.1 ml aliquot of each inoculum was added to a final concentration of 10^5 to 10^6 CFU/ml. The tubes were incubated at room temperature and sampled on days 0, 1, 2, 4, 7, 14, 21 and 28.
(§4) At each sample point, 1.0 ml aliquots were withdrawn, serially diluted and plated in triplicate on SDA. The plates were incubated at 25-30° C. for 3-7 days. The colonies were counted and the average CFU/ml was calculated. Controls for purity, viability and sterility were performed as described previously.
(§5) According to the US Pharmacopoeia, a test compound is an effective preservative if the concentrations of viable fungi remain at or below the initial concentrations during the first fourteen days and after 28 days. According to this definition, 9-decenoic acid is an effective preservative against Aspergillus flavus and Penecillium verrucosum at concentrations as low at 0.078%. […] For A. flavus, 9-decenoic acid was fungicidal at 0.015% after 21 days and at day 0 at 0.03%.

[2] = system: Penecillium verrucosum, ATCC 18381; assay: Preservative effectiveness, USP <51>
Protocol: as §1, §2, §3, §4, §5

[3] = system: Aureobasidium pullulans ATCC 12536; assay: Dry film preservative test, growth on PDA agar surface
Protocol: (§6) The efficacy of 9-decenoic acid and the methyl ester of 9-decenoic acid as a dry film preservative was determined through the incubation of Trichoderma virens ATCC 9645, Cladosporium cladosporiodes ATCC 16022 and Aureobasidium pullulans ATCC 12536 in the presence of varying concentrations of 9-decenoic acid or the methyl ester of 9-decenoic acid on an agar surface.
(§7) Fungal spores were hydrated overnight in 0.1% Tween 80 and then plated on Potato Dextrose Agar (PDA) and incubated at 25-30° C. for 6 days. The spores were washed from the surface with 5 mls of 0.1% Tween 80 and enumerated.
(§8) PDA plates with prepared according to the manufactures instructions through sterilization. The agar was tempered to approximately 50° C. and filter sterilized 9-decenoic acid was added to achieve concentrations of 0.1, 0.5 and 1.0% in the agar. Additionally, one concentration of the methyl ester of 9-decenoic acid (0.5%) was also prepared. The agar was thoroughly mixed and poured into sterile petri plates and allowed to solidify.
(§9) The agar plates were inoculated with the spore solution to achieve 10^2 spores/plate. The plates were incubated at 25-30° C. in Ziploc bags with a wet paper towel to keep the moisture level high. The plates were examined for growth after 4, 7, 16, 24 and 31 days. The percent coverage of growth on the agar surface was recorded at each sample point.

[4] = system: Trichoderma virens ATCC 9645; assay: as above
Protocol: as §6, §7, §8, §9

C=CCCCCCCCC(=O)O [9-decenoic acid]
Log reduction of organisms after exposure ([1]; 0.0078%, exposure 0 days): 0.2 log | Log reduction of organisms after exposure ([1]; 0.0078%, exposure 1 day): 0.3 log | Log reduction of organisms after exposure ([1]; 0.0078%, exposure 2 days): 0.2 log | Log reduction of organisms after exposure ([1]; 0.0078%, exposure 4 days): 0.4 log | Log reduction of organisms after exposure ([1]; 0.0078%, exposure 7 days): 0.4 log | Log reduction of organisms after exposure ([1]; 0.0078%, exposure 14 days): 0.4 log | Log reduction of organisms after exposure ([1]; 0.0078%, exposure 21 days): 0.8 log | Log reduction of organisms after exposure ([1]; 0.0078%, exposure 28 days): 0.8 log | Log reduction of organisms after exposure ([1]; 0.015%, exposure 0 days): 1.2 log | Log reduction of organisms after exposure ([1]; 0.015%, exposure 1 day): 2.9 log | Log reduction of organisms after exposure ([1]; 0.015%, exposure 2 days): 3.1 log | Log reduction of organisms after exposure ([1]; 0.015%, exposure 4 days): 3.9 log | Log reduction of organisms after exposure ([1]; 0.015%, exposure 7 days): 3.9 log | Log reduction of organisms after exposure ([1]; 0.015%, exposure 14 days): 4.8 log | Log reduction of organisms after exposure ([1]; 0.015%, exposure 21 days): 5.1 log | Log reduction of organisms after exposure ([1]; 0.015%, exposure 28 days): 4.8 log | Log reduction of organisms after exposure ([1]; 0.03%, exposure 0 days): 5.1 log | Log reduction of organisms after exposure ([1]; 0.03%, exposure 1 day): 5.1 log | Log reduction of organisms after exposure ([1]; 0.03%, exposure 2 days): 5.1 log | Log reduction of organisms after exposure ([1]; 0.03%, exposure 4 days): 5.1 log | Log reduction of organisms after exposure ([1]; 0.03%, exposure 7 days): 5.1 log | Log reduction of organisms after exposure ([1]; 0.03%, exposure 14 days): 5.1 log | Log reduction of organisms after exposure ([1]; 0.03%, exposure 21 days): 5.1 log | Log reduction of organisms after exposure ([1]; 0.03%, exposure 28 days): 5.1 log | Log reduction of organisms after exposure ([1]; 0.0625%, exposure 0 days): 5.1 log | Log reduction of organisms after exposure ([1]; 0.0625%, exposure 1 day): 5.1 log | Log reduction of organisms after exposure ([1]; 0.0625%, exposure 2 days): 5.1 log | Log reduction of organisms after exposure ([1]; 0.0625%, exposure 4 days): 5.1 log | Log reduction of organisms after exposure ([1]; 0.0625%, exposure 7 days): 5.1 log | Log reduction of organisms after exposure ([1]; 0.0625%, exposure 14 days): 5.1 log | Log reduction of organisms after exposure ([1]; 0.0625%, exposure 21 days): 5.1 log | Log reduction of organisms after exposure ([1]; 0.0625%, exposure 28 days): 5.1 log | time after which fungicidal ([1]; at 0.015%): 21 days | time after which fungicidal ([1]; at 0.03%): 0 days | time after which fungicidal [2]: 2 days | Log reduction of organisms after exposure ([2]; 0.0078%, exposure 0 days): 0 log | Log reduction of organisms after exposure ([2]; 0.0078%, exposure 1 day): 0.1 log | Log reduction of organisms after exposure ([2]; 0.0078%, exposure 2 days): 0.8 log | Log reduction of organisms after exposure ([2]; 0.0078%, exposure 4 days): 0.8 log | Log reduction of organisms after exposure ([2]; 0.0078%, exposure 7 days): 0.8 log | Log reduction of organisms after exposure ([2]; 0.0078%, exposure 14 days): 0.8 log | Log reduction of organisms after exposure ([2]; 0.0078%, exposure 21 days): 1.8 log | Log reduction of organisms after exposure ([2]; 0.0078%, exposure 28 days): 1.9 log | Log reduction of organisms after exposure ([2]; 0.015%, exposure 0 days): 0.1 log | Log reduction of organisms after exposure ([2]; 0.015%, exposure 1 day): 3.0 log | Log reduction of organisms after exposure ([2]; 0.015%, exposure 2 days): 5.1 log | Log reduction of organisms after exposure ([2]; 0.015%, exposure 4 days): 5.1 log | Log reduction of organisms after exposure ([2]; 0.015%, exposure 7 days): 5.1 log | Log reduction of organisms after exposure ([2]; 0.015%, exposure 14 days): 5.1 log | Log reduction of organisms after exposure ([2]; 0.015%, exposure 21 days): 5.1 log | Log reduction of organisms after exposure ([2]; 0.015%, exposure 28 days): 5.1 log | Log reduction of organisms after exposure ([2]; 0.03%, exposure 0 days): 3.4 log | Log reduction of organisms after exposure ([2]; 0.03%, exposure 1 day): 5.1 log | Log reduction of organisms after exposure ([2]; 0.03%, exposure 2 days): 5.1 log | Log reduction of organisms after exposure ([2]; 0.03%, exposure 4 days): 5.1 log | Log reduction of organisms after exposure ([2]; 0.03%, exposure 7 days): 5.1 log | Log reduction of organisms after exposure ([2]; 0.03%, exposure 14 days): 5.1 log | Log reduction of organisms after exposure ([2]; 0.03%, exposure 21 days): 5.1 log | Log reduction of organisms after exposure ([2]; 0.03%, exposure 28 days): 5.1 log | Log reduction of organisms after exposure ([2]; 0.0625%, exposure 0 days): 4.3 log | Log reduction of organisms after exposure ([2]; 0.0625%, exposure 1 day): 5.1 log | Log reduction of organisms after exposure ([2]; 0.0625%, exposure 2 days): 5.1 log | Log reduction of organisms after exposure ([2]; 0.0625%, exposure 4 days): 5.1 log | Log reduction of organisms after exposure ([2]; 0.0625%, exposure 7 days): 5.1 log | Log reduction of organisms after exposure ([2]; 0.0625%, exposure 14 days): 5.1 log | Log reduction of organisms after exposure ([2]; 0.0625%, exposure 21 days): 5.1 log | Log reduction of organisms after exposure ([2]; 0.0625%, exposure 28 days): 5.1 log | time after which fungicidal ([2]; at 0.03%): 1 days | Percentage coverage of agar surface ([3]; 0.1% in PDA agar, 4 days): 0% | Percentage coverage of agar surface ([3]; 0.1% in PDA agar, 7 days): 0% | Percentage coverage of agar surface ([3]; 0.1% in PDA agar, 16 days): 0% | Percentage coverage of agar surface ([3]; 0.1% in PDA agar, 24 days): 0% | Percentage coverage of agar surface ([3]; 0.1% in PDA agar, 31 days): 0% | Percentage coverage of agar surface ([3]; 0.5% in PDA agar, 4 days): 0% | Percentage coverage of agar surface ([3]; 0.5% in PDA agar, 7 days): 0% | Percentage coverage of agar surface ([3]; 0.5% in PDA agar, 16 days): 0% | Percentage coverage of agar surface ([3]; 0.5% in PDA agar, 24 days): 0% | Percentage coverage of agar surface ([3]; 0.5% in PDA agar, 31 days): 0% | Percentage coverage of agar surface ([3]; 1.0% in PDA agar, 4 days): 0% | Percentage coverage of agar surface ([3]; 1.0% in PDA agar, 7 days): 0% | Percentage coverage of agar surface ([3]; 1.0% in PDA agar, 16 days): 0% | Percentage coverage of agar surface ([3]; 1.0% in PDA agar, 24 days): 0% | Percentage coverage of agar surface ([3]; 1.0% in PDA agar, 31 days): 0% | effectiveness as dry film preservative ([3]; at 0.1% for up to 31 days): effective | Percentage coverage of agar surface ([4]; 0.1% in PDA agar, 4 days): 0% | Percentage coverage of agar surface ([4]; 0.1% in PDA agar, 7 days): 0% | Percentage coverage of agar surface ([4]; 0.1% in PDA agar, 16 days): 0% | Percentage coverage of agar surface ([4]; 0.1% in PDA agar, 24 days): 0% | Percentage coverage of agar surface ([4]; 0.1% in PDA agar, 31 days): 0% | Percentage coverage of agar surface ([4]; 0.5% in PDA agar, 4 days): 0% | Percentage coverage of agar surface ([4]; 0.5% in PDA agar, 7 days): 0% | Percentage coverage of agar surface ([4]; 0.5% in PDA agar, 16 days): 0% | Percentage coverage of agar surface ([4]; 0.5% in PDA agar, 24 days): 0% | Percentage coverage of agar surface ([4]; 0.5% in PDA agar, 31 days): 0% | Percentage coverage of agar surface ([4]; 1.0% in PDA agar, 4 days): 0% | Percentage coverage of agar surface ([4]; 1.0% in PDA agar, 7 days): 0% | Percentage coverage of agar surface ([4]; 1.0% in PDA agar, 16 days): 0% | Percentage coverage of agar surface ([4]; 1.0% in PDA agar, 24 days): 0% | Percentage coverage of agar surface ([4]; 1.0% in PDA agar, 31 days): 0% | effectiveness as dry film preservative ([4]; at 0.1% for up to 31 days): effective
